What was measured:
Assay type in all cases: in vivo
[1] = test system: palmer (palmer amaranth, palmer pigweed, Amaranthus palmeri); assay: Test A preemergence soil spray, visual injury rating 0-100; details: 10 days, 0 = no effect, 100 = complete control
Outline: (§1)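 Compounds formulated in a non-phytotoxic solvent with surfactant are sprayed onto soil of freshly planted loam-sand pots ahead of emergence, or onto emerged plants 2-10 cm tall. After a 10-day greenhouse period, each species is scored visually for injury against untreated controls.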

[2] = test system: oat, wild (wild oat, Avena fatua); assay: as above; details: 10 days, 0 = no effect, 100 = complete control
Outline: as §1

kochia (Bassia scoparia) [3] = assay: as above; details: 10 days, 0 = no effect, 100 = complete control
Outline: as §1

[4] = test system: barnyardgrass (Echinochloa crus-galli); assay: as above; details: 10 days, 0 = no effect, 100 = complete control
Outline: as §1

corn (Zea mays) [5] = assay: as above; details: 10 days, 0 = no effect, 100 = complete control
Outline: as §1

soybean (Glycine max) [6] = assay: as above; details: 10 days, 0 = no effect, 100 = complete control
Outline: as §1

[7] = test system: blackgrass (Alopecurus myosuroides); assay: as above; details: 10 days, 0 = no effect, 100 = complete control
Outline: as §1

[8] = test system: ragweed (common ragweed, Ambrosia artemisiifolia); assay: as above; details: 10 days, 0 = no effect, 100 = complete control
Outline: as §1

[9] = test system: wheat (Triticum aestivum); assay: as above; details: 10 days, 0 = no effect, 100 = complete control
Outline: as §1

[10] = test system: green foxtail (Setaria viridis); assay: as above; details: 10 days, 0 = no effect, 100 = complete control
Outline: as §1

[11] = test system: barnyardgrass (Echinochloa crusgalli); assay: Test B flooded paddy test, visual plant response rating 0-100; details: 250 g ai/ha, Flood, applied to paddy water, evaluated after 13 days
Outline: (§2)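 Treatment occurs at the 2-leaf stage by adding compound to floodwater standing 3 cm above the soil, a level kept for the whole test. Plants stay in the greenhouse 13 days before visual comparison with controls.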

[12] = test system: sedge, umbrella (small-flower umbrella sedge, Cyperus difformis); assay: as above; details: 250 g ai/ha, Flood, applied to paddy water, evaluated after 13 days
Outline: as §2

[13] = test system: ducksalad (Heteranthera limosa); assay: as above; details: 250 g ai/ha, Flood, applied to paddy water, evaluated after 13 days
Outline: as §2

rice (Oryza sativa) = assay: as above; details: 250 g ai/ha, Flood, applied to paddy water, evaluated after 13 days
Outline: as §2

[14] = test system: ryegrass, Italian (italian ryegrass, Lolium multiflorum); assay: Test A postemergence application, visual injury rating 0-100; details: 10 days
Outline: as §1

[15] = test system: palmer (palmer amaranth, palmer pigweed, Amaranthus palmeri); assay: as above; details: 10 days
Outline: as §1

[16] = test system: oat, wild (wild oat, Avena fatua); assay: as above; details: 10 days
Outline: as §1

kochia (Bassia scoparia) [17] = assay: as above; details: 10 days
Outline: as §1

[18] = test system: barnyardgrass (Echinochloa crus-galli); assay: as above; details: 10 days
Outline: as §1

corn (Zea mays) [19] = assay: as above; details: 10 days
Outline: as §1

soybean (Glycine max) [20] = assay: as above; details: 10 days
Outline: as §1

[21] = test system: galium (catchweed bedstraw, Galium aparine); assay: as above; details: 10 days
Outline: as §1

[22] = test system: blackgrass (Alopecurus myosuroides); assay: as above; details: 10 days
Outline: as §1

[23] = test system: ragweed (common ragweed, Ambrosia artemisiifolia); assay: as above; details: 10 days
Outline: as §1

[24] = test system: wheat (Triticum aestivum); assay: as above; details: 10 days
Outline: as §1

[25] = test system: green foxtail (Setaria viridis); assay: as above; details: 10 days
Outline: as §1

[26] = test system: horseweed (Erigeron canadensis); assay: as above; details: 10 days
Outline: as §1

[27] = 31 g ai/ha, postemergence, 0 = no effect, 100 = complete control
[28] = Postemergence, 125 g ai/ha, 0 is no effect, 100 is complete control

SMILES: CC1(C(=O)NC2C=CC(C(=O)O)C2)CN(c2cc(F)cc(Cl)c2)C(=O)O1 (centres unmarked) [Compound 6]
- Amaranth, Palmer plant response rating (0-100) ([1]; 31 g ai/ha): 60
- Amaranth, Palmer plant response rating (0 to 100 scale) ([1]; 125 g ai/ha): 90
- Oat, Wild plant response rating (0-100) ([2]; 31 g ai/ha): 30
- Oat, Wild plant response rating (0 to 100 scale) ([2]; 125 g ai/ha): 90
- Kochia plant response rating (0-100) (kochia (Bassia scoparia) [3]; 31 g ai/ha): 100
- Kochia plant response rating (0 to 100 scale) (kochia (Bassia scoparia) [3]; 125 g ai/ha): 100
- Barnyardgrass plant response rating (0-100) ([4]; 31 g ai/ha): 20
- Barnyardgrass plant response rating (0 to 100 scale) ([4]; 125 g ai/ha): 100
- Corn plant response rating (0-100) (corn (Zea mays) [5]; 31 g ai/ha): 30
- Corn plant response rating (0 to 100 scale) (corn (Zea mays) [5]; 125 g ai/ha): 90
- Soybean plant response rating (0-100) (soybean (Glycine max) [6]; 31 g ai/ha): 50
- Soybean plant response rating (0 to 100 scale) (soybean (Glycine max) [6]; 125 g ai/ha): 80
- Blackgrass plant response rating (0-100) ([7]; 31 g ai/ha): 30
- Blackgrass plant response rating (0 to 100 scale) ([7]; 125 g ai/ha): 60
- Ragweed plant response rating (0-100) ([8]; 31 g ai/ha): 0
- Ragweed plant response rating (0 to 100 scale) ([8]; 125 g ai/ha): 40
- Wheat plant response rating (0-100) ([9]; 31 g ai/ha): 50
- Wheat plant response rating (0 to 100 scale) ([9]; 125 g ai/ha): 90
- Foxtail, Green plant response rating (0-100) ([10]; 31 g ai/ha): 50
- Foxtail, Green plant response rating (0 to 100 scale) ([10]; 125 g ai/ha): 100
- Plant response rating, Barnyardgrass (0 to 100 scale, 0 is no effect and 100 is complete control) [11]: 70
- Plant response rating, Sedge, Umbrella (0 to 100 scale, 0 is no effect and 100 is complete control) [12]: 95
- Plant response rating, Ducksalad (0 to 100 scale, 0 is no effect and 100 is complete control) [13]: 95
- Plant response rating, Rice (0 to 100 scale, 0 is no effect and 100 is complete control) (rice (Oryza sativa)): 35
- Ryegrass, Italian plant response rating (0-100) [14, 27]: 80
- Ryegrass, Italian plant response rating (0 to 100 scale) [14, 28]: 90
- Amaranth, Palmer plant response rating (0-100) [15, 27]: 90
- Amaranth, Palmer / Pigweed, Palmer plant response rating (0 to 100 scale) [15, 28]: 90
- Oat, Wild plant response rating (0-100) [16, 27]: 90
- Oat, Wild plant response rating (0 to 100 scale) [16, 28]: 100
- Kochia plant response rating (0-100) (kochia (Bassia scoparia) [17]; [27]): 80
- Kochia plant response rating (0 to 100 scale) (kochia (Bassia scoparia) [17]; [28]): 80
- Barnyardgrass plant response rating (0-100) [18, 27]: 100
- Barnyardgrass plant response rating (0 to 100 scale) [18, 28]: 100
- Corn plant response rating (0-100) (corn (Zea mays) [19]; [27]): 100
- Corn plant response rating (0 to 100 scale) (corn (Zea mays) [19]; [28]): 100
- Soybean plant response rating (0-100) (soybean (Glycine max) [20]; [27]): 80
- Soybean plant response rating (0 to 100 scale) (soybean (Glycine max) [20]; [28]): 80
- Galium plant response rating (0-100) [21, 27]: 80
- Galium plant response rating (0 to 100 scale) [21, 28]: 80
- Blackgrass plant response rating (0-100) [22, 27]: 80
- Blackgrass plant response rating (0 to 100 scale) [22, 28]: 90
- Ragweed plant response rating (0-100) [23, 27]: 60
- Ragweed plant response rating (0 to 100 scale) [23, 28]: 80
- Wheat plant response rating (0-100) [24, 27]: 90
- Wheat plant response rating (0 to 100 scale) [24, 28]: 90
- Foxtail, Green plant response rating (0-100) [25, 27]: 90
- Foxtail, Green plant response rating (0 to 100 scale) [25, 28]: 90
- Horseweed plant response rating (0-100) [26, 27]: 40
- Horseweed plant response rating (0 to 100 scale) [26, 28]: 90
